Assay results: PubChem BioAssay (NCI)
Values joined by “and” are separate entries in the source; they are usually repeats but may differ in a detail not shown here. Equal values may be shown once.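 Tested at 5 concentrations; 48 h exposure; 96-well plates; endpoints linearly interpolated, else capped at highest concentration. At the GI50, growth is halved. TGI denotes the concentration required for complete inhibition of growth.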

Experiments:
Assay in all cases: NCI anticancer screen, dose series, 48 h
A498 renal = system: A498 renal
A549 NSCLC = system: A549 NSCLC
COLO 205 colon = system: COLO 205 colon
HCT-116 colon = system: HCT-116 colon
MALME-3M melanoma = system: MALME-3M melanoma
MOLT-4 leukemia = system: MOLT-4 leukemia
NCI-H460 lung = system: NCI-H460 lung
OVCAR-4 ovarian = system: OVCAR-4 ovarian
U251 CNS = system: U251 CNS
PC-3 prostate = system: PC-3 prostate

Q: Which results are given for `Cc1c(C(Cc2ccccc2N(C)C(=O)/C=C\C(=O)O)c2c[nH]c3ccccc23)c2ccccc2n1C` (stereo unspecified)?
A: TGI (A498 renal): 35.6 µM; TGI (A549 NSCLC): 31.8 µM; TGI (COLO 205 colon): 29.6 µM; TGI (HCT-116 colon): 28.4 µM; TGI (MALME-3M melanoma): 22.4 µM; TGI (MOLT-4 leukemia): 53.8 µM; TGI (NCI-H460 lung): 32.7 µM; TGI (OVCAR-4 ovarian): 55.5 µM; TGI (U251 CNS): 30.3 µM

Q: How did the TGI (A498 renal) turn out when `COc1ccc(C(=O)C(C(=O)CCC(=O)Nc2ccc(Cl)c(Cl)c2)c2ccc(OC)cc2)cc1` (stereo unspecified) was run?
A: > 100 µM

Q: What about the TGI (A549 NSCLC) of the same compound?
A: > 100 µM

Q: What about the TGI (HCT-116 colon) of the same compound?
A: > 100 µM

Q: What about the TGI (MALME-3M melanoma) of the same compound?
A: > 100 µM

Q: What about the TGI (MOLT-4 leukemia) of the same compound?
A: > 100 µM

Q: What about the TGI (NCI-H460 lung) of the same compound?
A: > 100 µM

Q: What about the TGI (OVCAR-4 ovarian) of the same compound?
A: > 100 µM

Q: And the TGI (U251 CNS)?
A: > 100 µM

Q: What does the source list for `O=C([CH-]C(=O)c1ccccc1)c1ccccc1.O=C([CH-]C(=O)c1ccccc1)c1ccccc1.O=C([CH-]C(=O)c1ccccc1)c1ccccc1.[Ga+3]`?
A: GI50 (A498 renal): 56.8 µM; TGI (A498 renal): > 100 µM; GI50 (A549 NSCLC): 39.6 µM; TGI (A549 NSCLC): > 100 µM; GI50 (COLO 205 colon): > 100 µM; TGI (COLO 205 colon): > 100 µM; GI50 (HCT-116 colon): 23.4 µM; TGI (HCT-116 colon): > 100 µM; GI50 (MALME-3M melanoma): > 100 µM; TGI (MALME-3M melanoma): > 100 µM; GI50 (MOLT-4 leukemia): 13.3 µM; TGI (MOLT-4 leukemia): > 100 µM; GI50 (NCI-H460 lung): 16.3 µM; TGI (NCI-H460 lung): > 100 µM; GI50 (OVCAR-4 ovarian): 64.7 µM; TGI (OVCAR-4 ovarian): > 100 µM; GI50 (U251 CNS): 23.3 µM; TGI (U251 CNS): > 100 µM

Q: For `COc1ccc(C2COc3c(ccc(OC)c3OC)C2=O)cc1OC` (stereo unspecified), which TGI (A498 renal) is on record?
A: > 100 µM

Q: And the TGI (A549 NSCLC)?
A: > 100 µM

Q: And the TGI (COLO 205 colon)?
A: > 100 µM

Q: What about the TGI (HCT-116 colon) of the same compound?
A: > 100 µM

Q: And the TGI (MALME-3M melanoma)?
A: > 100 µM

Q: And the TGI (MOLT-4 leukemia)?
A: > 100 µM

Q: What about the TGI (NCI-H460 lung) of the same compound?
A: > 100 µM

Q: And the TGI (OVCAR-4 ovarian)?
A: > 100 µM

Q: What about the TGI (U251 CNS) of the same compound?
A: > 100 µM

Q: Which GI50 (A498 renal) does the source give for `CC[C@@]1(OP(=O)(O)O)C(=O)OCc2c1cc1n(c2=O)Cc2cc3ccccc3nc2-1` here?
A: 0.128 µM

Q: What about the TGI (A498 renal) of the same compound?
A: 0.559 µM and 0.96 µM

Q: And the GI50 (A549 NSCLC)?
A: 0.12 µM

Q: What about the TGI (A549 NSCLC) of the same compound?
A: 7.33 µM and 12.3 µM

Q: What about the GI50 (COLO 205 colon) of the same compound?
A: 1.21 µM

Q: What about the TGI (COLO 205 colon) of the same compound?
A: 5.64 µM

Q: What about the TGI (HCT-116 colon) of the same compound?
A: 1.51 µM

Q: What about the GI50 (MALME-3M melanoma) of the same compound?
A: 1.09 µM

Q: And the TGI (MALME-3M melanoma)?
A: 9.87 µM and 14 µM

Q: And the TGI (MOLT-4 leukemia)?
A: 0.147 µM and 0.395 µM

Q: What about the TGI (NCI-H460 lung) of the same compound?
A: 0.666 µM

Q: What about the TGI (OVCAR-4 ovarian) of the same compound?
A: 6.44 µM and 4.85 µM

Q: What about the TGI (U251 CNS) of the same compound?
A: 0.747 µM

Q: For `Cc1c(Cl)cccc1C(=O)Nc1nc2c(s1)CN(C(=O)Nc1cccc(C(F)(F)F)c1)CC2`, which GI50 (A549 NSCLC) is on record?
A: 0.33 µM

Q: What about the TGI (A549 NSCLC) of the same compound?
A: > 50 µM

Q: What about the GI50 (COLO 205 colon) of the same compound?
A: 0.174 µM

Q: What about the TGI (COLO 205 colon) of the same compound?
A: 4.36 µM

Q: What about the GI50 (HCT-116 colon) of the same compound?
A: 0.212 µM

Q: And the TGI (HCT-116 colon)?
A: > 50 µM

Q: And the GI50 (MALME-3M melanoma)?
A: 0.356 µM

Q: What about the TGI (MALME-3M melanoma) of the same compound?
A: > 50 µM

Q: And the GI50 (MOLT-4 leukemia)?
A: 0.291 µM

Q: And the TGI (MOLT-4 leukemia)?
A: > 50 µM

Q: And the GI50 (NCI-H460 lung)?
A: 0.182 µM

Q: And the TGI (NCI-H460 lung)?
A: > 17.4 µM

Q: What about the GI50 (OVCAR-4 ovarian) of the same compound?
A: 1.45 µM

Q: And the TGI (OVCAR-4 ovarian)?
A: > 50 µM

Q: And the GI50 (PC-3 prostate)?
A: 0.143 µM

Q: What about the TGI (PC-3 prostate) of the same compound?
A: > 50 µM

Q: What about the GI50 (U251 CNS) of the same compound?
A: 0.242 µM

Q: And the TGI (U251 CNS)?
A: > 50 µM

Q: What does the source list for `C=CCc1cccc(C=O)c1O`?
A: GI50 (A549 NSCLC): > 100 µM; TGI (A549 NSCLC): > 100 µM; GI50 (COLO 205 colon): > 100 µM; TGI (COLO 205 colon): > 100 µM; GI50 (HCT-116 colon): 4.07 µM; TGI (HCT-116 colon): > 100 µM; GI50 (MALME-3M melanoma): > 100 µM; TGI (MALME-3M melanoma): > 100 µM; GI50 (MOLT-4 leukemia): 15.5 µM; TGI (MOLT-4 leukemia): 55.1 µM; GI50 (NCI-H460 lung): > 100 µM; TGI (NCI-H460 lung): > 100 µM; GI50 (OVCAR-4 ovarian): 21.7 µM; TGI (OVCAR-4 ovarian): > 100 µM; GI50 (PC-3 prostate): 5.86 µM; TGI (PC-3 prostate): > 100 µM; GI50 (U251 CNS): 6.63 µM; TGI (U251 CNS): > 100 µM

Q: Which results are given for `CCN1CCN(CCC(=O)Nc2cccc(-n3cc(-c4ccncc4)c(-c4ccc(Cl)c(OC)c4)n3)c2)CC1`?
A: GI50 (A498 renal): 0.676 µM; TGI (A498 renal): 2.74 µM; GI50 (A549 NSCLC): 0.593 µM; TGI (A549 NSCLC): 2.29 µM; GI50 (HCT-116 colon): 0.374 µM; TGI (HCT-116 colon): 1.62 µM; GI50 (MALME-3M melanoma): 0.765 µM; TGI (MALME-3M melanoma): 2.35 µM; GI50 (MOLT-4 leukemia): 0.661 µM; TGI (MOLT-4 leukemia): 5.76 µM; GI50 (NCI-H460 lung): 0.361 µM; TGI (NCI-H460 lung): 1.37 µM; GI50 (OVCAR-4 ovarian): 0.919 µM; TGI (OVCAR-4 ovarian): 7.53 µM; GI50 (PC-3 prostate): 0.448 µM; TGI (PC-3 prostate): 2.02 µM; GI50 (U251 CNS): 0.484 µM; TGI (U251 CNS): 1.76 µM
